Measured values reported in patent publication US10047083B2, “Dihydropyrimidinoisoquinolinones and pharmaceutical compositions thereof for the treatment of inflammatory disorders” (GALAPAGOS NV, priority 2011, dated 2018).

Molecular target: T1, GPR84 (Homo sapiens, UniProt Q9NQS5)
T1 construct: expressed in transfected cells; membranes used
Assay: GTPγS binding assay (GPR84)
Format: biochemical
Settings: membranes from stable cell line over expressing GPR84; 3,3′ di indolylmethane at EC80
Protocol: 1.1. Cell Based Assay: GTp-γS Binding Assay.
The following assay can be used for determination of GPR84 activation.
The assay is performed in a 96 well plate where the following reagents are added. […] In a last step, 30 μL of a mixture consisting of membranes-GTPγS-SpA beads is added [mixture consists of 20 μg/well membranes derived from stable cell line over expressing GPR84 (membranes are pre-incubated with 0.1 μM GDP for 15 min at 4° C.), 0.1 nM [^35S]GTPγS (Perkin Elmer, NEG030) and 0.5 mg/well PVT-WGA SpA beads (Perkin Elmer, RPNQ0001)]. All components are diluted in assay buffer containing 20 mM HEPES pH 7.4; 5 mM MgCl2; 250 mM NaCl; 0.05% BSA; 75 ug/mL saponin. Reactions are incubated for 90 min at room temperature followed by centrifugation at 2000 rpm during 15 min. Plates are read on a Topcount reader (Perkin Elmer) immediately after centrifugation (readout time, 1 min/well).

T1 sequence (Q9NQS5 whole entry): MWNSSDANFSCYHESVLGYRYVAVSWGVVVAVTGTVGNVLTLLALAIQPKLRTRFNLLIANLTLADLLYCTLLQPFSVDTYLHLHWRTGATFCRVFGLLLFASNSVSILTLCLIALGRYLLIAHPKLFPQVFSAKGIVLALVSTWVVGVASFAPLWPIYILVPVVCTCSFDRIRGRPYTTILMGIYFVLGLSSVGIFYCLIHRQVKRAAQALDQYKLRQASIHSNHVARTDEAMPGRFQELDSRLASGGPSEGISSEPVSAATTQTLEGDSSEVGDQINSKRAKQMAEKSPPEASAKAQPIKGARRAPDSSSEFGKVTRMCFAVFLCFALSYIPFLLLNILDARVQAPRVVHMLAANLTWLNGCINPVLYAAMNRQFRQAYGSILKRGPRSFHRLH

IC50	Compound
101 to 500 nM	CCCn1cc(-c2ccc3c(c2)CCn2c-3cc(OCC3COCCO3)nc2=O)cn1 (centres unmarked) [Compound 101, 2-([1,4]dioxan-2-ylmethoxy)-9-(1-propyl-1H-pyrazol-4-yl)-6,7-dihydro-pyrimido[6,1-a]isoquinolin-4-one]
0.01 to 100 nM	O=c1nc(OC[C@H]2COCCO2)cc2n1CCc1cc(OCc3noc(C4CC4)n3)ccc1-2 [Compound 104, 9-(5-cyclopropyl-[1,2,4]oxadiazol-3-ylmethoxy)-2-((R)-1-[1,4]dioxan-2-ylmethoxy)-6,7-dihydro-pyrimido[6,1-a]isoquinolin-4-one]
101 to 500 nM	C#Cc1ccc2c(c1)CCn1c-2cc(OCC2COCCO2)nc1=O (centres unmarked) [Compound 105, 2-([1,4]dioxan-2-ylmethoxy)-9-ethynyl-6,7-dihydro-pyrimido[6,1-a]isoquinolin-4-one]
501 to 1000 nM	O=c1nc(OCC2COCCO2)cc2n1CCc1cc(C#Cc3ncccn3)ccc1-2 (centres unmarked) [Compound 106, 2-([1,4]dioxan-2-ylmethoxy)-9-pyrimidin-2-ylethynyl-6,7-dihydro-pyrimido[6,1-a]isoquinolin-4-one]
0.01 to 100 nM	O=c1nc(OCC2COCCO2)cc2n1CCc1cc(C#CC(O)c3cccnc3)ccc1-2 (centres unmarked) [Compound 108, 2-([1,4]dioxan-2-ylmethoxy)-9-(3-hydroxy-3-pyridin-3-yl-prop-1-ynyl)-6,7-dihydro-pyrimido[6,1-a]isoquinolin-4-one]
101 to 500 nM	COC(C#Cc1ccc2c(c1)CCn1c-2cc(OCC2COCCO2)nc1=O)C(C)C (centres unmarked) [Compound 110, 2-([1,4]dioxan-2-ylmethoxy)-9-(3-methoxy-4-methyl-pent-1-ynyl)-6,7-dihydro-pyrimido[6,1-a]isoquinolin-4-one]
101 to 500 nM	O=c1nc(OCC2COCCO2)cc2n1CCc1cc(C#CCn3ccnc3)ccc1-2 (centres unmarked) [Compound 113, 2-([1,4]Dioxan-2-ylmethoxy)-9-(3-imidazol-1-yl-prop-1-ynyl)-6,7-dihydro-pyrimido[6,1-a]isoquinolin-4-one]
101 to 500 nM	C=CCOc1ccc2c(c1)CCn1c-2cc(OC[C@H]2COCCO2)nc1=O [Compound 117, 9-allyloxy-2-((R)-1-[1,4]dioxan-2-ylmethoxy)-6,7-dihydro-pyrimido[6,1-a]isoquinolin-4-one]
101 to 500 nM	C=CCOc1ccc2c(c1)CCn1c-2cc(OC[C@@H]2COCCO2)nc1=O [Compound 118, 9-allyloxy-2-((S)-1-[1,4]dioxan-2-ylmethoxy)-6,7-dihydro-pyrimido[6,1-a]isoquinolin-4-one]
101 to 500 nM	O=c1nc(OC[C@H]2COCCO2)cc2n1CCc1cc(COC3CCOCC3)ccc1-2 [Compound 119, 2-((R)-1-[1,4]dioxan-2-ylmethoxy)-9-(tetrahydro-pyran-4-yloxymethyl)-6,7-dihydro-pyrimido[6,1-a]isoquinolin-4-one]
101 to 500 nM	O=c1nc(OCC2COCCO2)cc2n1CCc1cc(C#CCNCc3cccnc3)ccc1-2 (centres unmarked) [Compound 120, 2-([1,4]dioxan-2-ylmethoxy)-9-{3-[(pyridin-3-ylmethyl)-amino]-prop-1-ynyl}-6,7-dihydro-pyrimido[6,1-a]isoquinolin-4-one]
101 to 500 nM	O=c1nc(OC[C@@H]2COCCO2)cc2n1CCc1cc(COC3COC3)ccc1-2 [Compound 124, 2-((S)-1-[1,4]dioxan-2-ylmethoxy)-9-(oxetan-3-yloxymethyl)-6,7-dihydro-pyrimido[6,1-a]isoquinolin-4-one]
501 to 1000 nM	CC1(COCc2ccc3c(c2)CCn2c-3cc(OC[C@@H]3COCCO3)nc2=O)COC1 [Compound 125, 2-((S)-1-[1,4]dioxan-2-ylmethoxy)-9-(3-methyl-oxetan-3-ylmethoxymethyl)-6,7-dihydro-pyrimido[6,1-a]isoquinolin-4-one]
0.01 to 100 nM	CC(C)C(O)CCc1ccc2c(c1)CCn1c-2cc(OC[C@@H]2COCCO2)nc1=O (stereo partly drawn) [Compound 127, 2-((S)-1-[1,4]dioxan-2-ylmethoxy)-9-(3-hydroxy-4-methyl-pentyl)-6,7-dihydro-pyrimido[6,1-a]isoquinolin-4-one]
